Laboratory results: patent US5430028A, “5-aminoquinolone carboxylic acid derivative and antibacterial agent containing the same as active ingredient” (SS Pharmaceutical Co., Ltd., priority 1992, dated 1995)
Values after ≈ are worked out from the molar mass of the structure shown.

Legend:
Test in all cases: Antibacterial test (MIC), The Japan Chemotherapeutic Association method
[1] = system: M. R. Staphylococcus aureus 421; type: cell-based, Methicillin-resistant Staphylococcus aureus; conditions: M. R. Staphylococcus aureus 421 (MRSA); Mueller Hinton Medium, 10^6 /ml, 37° C., determined after 24 hours
Experimental: (§1) Antibacterial activities against microorganisms shown in Tables 1-3 were measured according to the MIC measurement method of The Japan Chemotherapeutic Association. Sparfloxacin was used as a control agent.
(§2) Medium: Mueller Hinton Medium
(§3) A 1,000 micrograms/ml solution in 25% dimethylsulfoxide was prepared. A series of solutions with various concentrations (100 micrograms to 0.006 micrograms) were prepared by successively diluting the solution with sterilized water by a factor of 1/2.
(§4) Amount of inoculated bacteria: 10^6 /ml
(§5) Cultivation conditions: 37° C., 48 hours
(§6) Determination: After 24 hours.

[2] = system: M. R. Staphylococcus aureus 420; type: cell-based, Methicillin-resistant Staphylococcus aureus; conditions: M. R. Staphylococcus aureus 420 (MRSA); Mueller Hinton Medium, 10^6 /ml, 37° C., determined after 24 hours
Experimental: as §1, §2, §3, §4, §5, §6

[3] = system: M. R. Staphylococcus aureus 419; type: cell-based, Methicillin-resistant Staphylococcus aureus; conditions: M. R. Staphylococcus aureus 419 (MRSA); Mueller Hinton Medium, 10^6 /ml, 37° C., determined after 24 hours
Experimental: as §1, §2, §3, §4, §5, §6

[4] = system: M. R. Staphylococcus aureus 415; type: cell-based, Methicillin-resistant Staphylococcus aureus; conditions: M. R. Staphylococcus aureus 415 (MRSA); Mueller Hinton Medium, 10^6 /ml, 37° C., determined after 24 hours
Experimental: as §1, §2, §3, §4, §5, §6

[5] = system: M. R. Staphylococcus aureus 395; type: cell-based, Methicillin-resistant Staphylococcus aureus; conditions: M. R. Staphylococcus aureus 395 (MRSA); Mueller Hinton Medium, 10^6 /ml, 37° C., determined after 24 hours
Experimental: as §1, §2, §3, §4, §5, §6

[6] = system: Pseudomonas aeruginosa P2; type: cell-based; conditions: Mueller Hinton Medium, 10^6 /ml, 37° C., determined after 24 hours
Experimental: as §1, §2, §3, §4, §5, §6

[7] = system: Sarcina lutea ATCC 9341; type: cell-based; conditions: Micrococcus luteus, ATCC9341, Mueller Hinton Medium, 10^6 /ml, 37° C., determined after 24 hours
Experimental: as §1, §2, §3, §4, §5, §6

[8] = system: Proteus vulgaris OXK; type: cell-based; conditions: Mueller Hinton Medium, 10^6 /ml, 37° C., determined after 24 hours
Experimental: as §1, §2, §3, §4, §5, §6

[9] = system: Pseudomonas aeruginosa IFO 13736; type: cell-based; conditions: IFO13736, Mueller Hinton Medium, 10^6 /ml, 37° C., determined after 24 hours
Experimental: as §1, §2, §3, §4, §5, §6

[10] = system: Escherichia coli K-12; type: cell-based; conditions: K12, Mueller Hinton Medium, 10^6 /ml, 37° C., determined after 24 hours
Experimental: as §1, §2, §3, §4, §5, §6

[11] = system: Staphylococcus aureus Terashima; type: cell-based; conditions: Mueller Hinton Medium, 10^6 /ml, 37° C., determined after 24 hours
Experimental: as §1, §2, §3, §4, §5, §6

[12] = system: Pseudomonas aeruginosa IFO 12582; type: cell-based; conditions: IFO12582, Mueller Hinton Medium, 10^6 /ml, 37° C., determined after 24 hours
Experimental: as §1, §2, §3, §4, §5, §6

[13] = system: Shigella flexneri 2b; type: cell-based; conditions: Mueller Hinton Medium, 10^6 /ml, 37° C., determined after 24 hours
Experimental: as §1, §2, §3, §4, §5, §6

[14] = system: Salmonella typhi TD; type: cell-based; conditions: Salmonella enterica, 24 h
Experimental: as §1, §2, §3, §4, §5, §6

[15] = system: Serratia marcescens NHL; type: cell-based; conditions: Mueller Hinton Medium, 10^6 /ml, 37° C., determined after 24 hours
Experimental: as §1, §2, §3, §4, §5, §6

[16] = system: Streptococcus faecalis IFO 12964; type: cell-based; conditions: Enterococcus faecalis, IFO12964, Mueller Hinton Medium, 10^6 /ml, 37° C., determined after 24 hours
Experimental: as §1, §2, §3, §4, §5, §6

[17] = system: Micrococcus lysodeikticus IFO 3333; type: cell-based; conditions: Micrococcus luteus, IFO3333, Mueller Hinton Medium, 10^6 /ml, 37° C., determined after 24 hours
Experimental: as §1, §2, §3, §4, §5, §6

[18] = system: Bacillus subtilis ATCC 6633; type: cell-based; conditions: ATCC6633, Mueller Hinton Medium, 10^6 /ml, 37° C., determined after 24 hours
Experimental: as §1, §2, §3, §4, §5, §6

[19] = system: Klebsiella pneumoniae IFO 13541; type: cell-based; conditions: IFO13541, Mueller Hinton Medium, 10^6 /ml, 37° C., determined after 24 hours
Experimental: as §1, §2, §3, §4, §5, §6

[20] = system: Proteus rettgeri; type: cell-based; conditions: Providencia rettgeri, Mueller Hinton Medium, 10^6 /ml, 37° C., determined after 24 hours
Experimental: as §1, §2, §3, §4, §5, §6

[21] = system: Staphylococcus aureus FDA 209P; type: cell-based; conditions: FDA209P, Mueller Hinton Medium, 10^6 /ml, 37° C., determined after 24 hours
Experimental: as §1, §2, §3, §4, §5, §6

[22] = system: Staphylococcus epidermidis ATCC 12228; type: cell-based; conditions: ATCC12228, Mueller Hinton Medium, 10^6 /ml, 37° C., determined after 24 hours
Experimental: as §1, §2, §3, §4, §5, §6

[23] = system: Staphylococcus aureus Smith; type: cell-based; conditions: Mueller Hinton Medium, 10^6 /ml, 37° C., determined after 24 hours
Experimental: as §1, §2, §3, §4, §5, §6

[24] = system: Klebsiella pneumoniae ATCC 10031; type: cell-based; conditions: ATCC10031, Mueller Hinton Medium, 10^6 /ml, 37° C., determined after 24 hours
Experimental: as §1, §2, §3, §4, §5, §6

[25] = system: Escherichia coli O-1; type: cell-based; conditions: O1, Mueller Hinton Medium, 10^6 /ml, 37° C., determined after 24 hours
Experimental: as §1, §2, §3, §4, §5, §6

| Compound | MIC [1] [µg/mL] | MIC [2] [µg/mL] | MIC [3] [µg/mL] | MIC [4] [µg/mL] | MIC [5] [µg/mL] | MIC [6] [µg/mL] | MIC [7] [µg/mL] | MIC [8] [µg/mL] | MIC [9] [µg/mL] | MIC [10] [µg/mL] | MIC [11] [µg/mL] | MIC [12] [µg/mL] | MIC [13] [µg/mL] | MIC [14] [µg/mL] | MIC [15] [µg/mL] | MIC [16] [µg/mL] | MIC [17] [µg/mL] | MIC [18] [µg/mL] | MIC [19] [µg/mL] | MIC [20] [µg/mL] | also measured |
| --- | --- | --- | --- | --- | --- | --- | --- | --- | --- | --- | --- | --- | --- | --- | --- | --- | --- | --- | --- | --- | --- |
| C[C@@H]1CN(c2c(F)c(N)c3c(=O)c(C(=O)O)cn(C4CC4)c3c2F)C[C@H](C)N1 [Spafloxacin, reference compound] | 0.05 (≈ 0.127 µM) | 0.1 (≈ 0.255 µM) | 0.05 (≈ 0.127 µM) | 0.05 (≈ 0.127 µM) | 0.1 (≈ 0.255 µM) | 1.56 (≈ 3.98 µM) | 1.56 (≈ 3.98 µM) | 0.05 (≈ 0.127 µM) | 0.78 (≈ 1.99 µM) | 0.012 (≈ 0.0306 µM) | 0.1 (≈ 0.255 µM) | 1.56 (≈ 3.98 µM) | 0.006 (≈ 0.0153 µM) | 0.006 (≈ 0.0153 µM) | 0.2 (≈ 0.51 µM) | 0.39 (≈ 0.994 µM) | 0.39 (≈ 0.994 µM) | 0.024 (≈ 0.0612 µM) | 0.012 (≈ 0.0306 µM) | 0.1 (≈ 0.255 µM) | MIC [21]: 0.024 µg/mL (≈ 0.0612 µM); MIC [22]: 0.2 µg/mL (≈ 0.51 µM); MIC [23]: 0.05 µg/mL (≈ 0.127 µM); MIC [24]: 0.006 µg/mL (≈ 0.0153 µM); MIC [25]: 0.012 µg/mL (≈ 0.0306 µM) |
| Nc1c(F)c(N2CCNC(=O)CC2)c(F)c2c1c(=O)c(C(=O)O)cn2C1CC1 [Compound No. 1-2, 5-Amino-1-cyclopropyl-6,8-difluoro-7-(2,3,4,5,6,7-hexahydro-1H-1,4-diazepin-5-on-1-yl)-1,4-dihydro-4-oxo-quinoline-3-carboxylic acid] | 0.012 (≈ 0.0306 µM) | 0.05 (≈ 0.127 µM) | 0.024 (≈ 0.0612 µM) | 0.024 (≈ 0.0612 µM) | 0.05 (≈ 0.127 µM) | 6.25 (≈ 15.9 µM) | 0.39 (≈ 0.994 µM) | 0.05 (≈ 0.127 µM) | 3.13 (≈ 7.98 µM) | 0.05 (≈ 0.127 µM) | 0.05 (≈ 0.127 µM) | 3.13 (≈ 7.98 µM) | 0.006 (≈ 0.0153 µM) | 0.05 (≈ 0.127 µM) | 0.78 (≈ 1.99 µM) | 0.2 (≈ 0.51 µM) | 0.05 (≈ 0.127 µM) | 0.006 (≈ 0.0153 µM) | 0.05 (≈ 0.127 µM) | 0.39 (≈ 0.994 µM) | MIC [21]: 0.012 µg/mL (≈ 0.0306 µM); MIC [22]: 0.05 µg/mL (≈ 0.127 µM); MIC [23]: 0.006 µg/mL (≈ 0.0153 µM); MIC [24]: 0.006 µg/mL (≈ 0.0153 µM); MIC [25]: 0.05 µg/mL (≈ 0.127 µM) |
| CN1CCN(c2c(F)c(N)c3c(=O)c(C(=O)O)cn(C4CC4)c3c2F)CCC1=O [1-8, 5-Amino-1-cyclopropyl-6,8-difluoro-7-(4-methyl-2,3,4,5,6,7-hexahydro-1H-1,4-diazepin-5-on-1-yl)-1,4-dihydro-4-oxoquinoline-3-carboxylic acid] | 0.024 (≈ 0.0591 µM) | 0.05 (≈ 0.123 µM) | 0.024 (≈ 0.0591 µM) | 0.024 (≈ 0.0591 µM) | 0.05 (≈ 0.123 µM) | 12.5 (≈ 30.8 µM) | 0.39 (≈ 0.96 µM) | 0.1 (≈ 0.246 µM) | 3.13 (≈ 7.7 µM) | 0.1 (≈ 0.246 µM) | 0.05 (≈ 0.123 µM) | 6.25 (≈ 15.4 µM) | 0.006 (≈ 0.0148 µM) | 0.1 (≈ 0.246 µM) | 1.56 (≈ 3.84 µM) | 0.2 (≈ 0.492 µM) | 0.1 (≈ 0.246 µM) | 0.006 (≈ 0.0148 µM) | 0.1 (≈ 0.246 µM) | 0.39 (≈ 0.96 µM) | MIC [21]: 0.006 µg/mL (≈ 0.0148 µM); MIC [22]: 0.1 µg/mL (≈ 0.246 µM); MIC [23]: 0.012 µg/mL (≈ 0.0295 µM); MIC [24]: 0.006 µg/mL (≈ 0.0148 µM); MIC [25]: 0.1 µg/mL (≈ 0.246 µM) |
| Nc1c(F)c(N2CCNC(=O)CC2)c(Cl)c2c1c(=O)c(C(=O)O)cn2C1CC1 [1-10, 5-Amino-8-chloro-1-cyclopropyl-6-fluoro-7-(2,3,4,5,6,7-hexahydro-1H-1,4-diazepin-5-on-1-yl)-4-oxo-quinoline-3-carboxylic acid] | 0.024 (≈ 0.0587 µM) | 0.012 (≈ 0.0294 µM) | 0.024 (≈ 0.0587 µM) | 0.012 (≈ 0.0294 µM) | 0.024 (≈ 0.0587 µM) | 12.5 (≈ 30.6 µM) | 0.2 (≈ 0.489 µM) | 0.2 (≈ 0.489 µM) | 6.25 (≈ 15.3 µM) | 0.1 (≈ 0.245 µM) | 0.1 (≈ 0.245 µM) | 3.13 (≈ 7.66 µM) | 0.006 (≈ 0.0147 µM) | 0.1 (≈ 0.245 µM) | 1.56 (≈ 3.82 µM) | 0.2 (≈ 0.489 µM) | 0.05 (≈ 0.122 µM) | 0.012 (≈ 0.0294 µM) | 0.1 (≈ 0.245 µM) | 0.78 (≈ 1.91 µM) | MIC [21]: 0.012 µg/mL (≈ 0.0294 µM); MIC [22]: 0.024 µg/mL (≈ 0.0587 µM); MIC [23]: 0.006 µg/mL (≈ 0.0147 µM); MIC [24]: 0.05 µg/mL (≈ 0.122 µM); MIC [25]: 0.1 µg/mL (≈ 0.245 µM) |
